Holding throughout (test): c-Kit assay: Ba/F3 KIT mutant cell viability (Cell Titer-Glo, 72 hours)
Format in all cases: cell-based
Holding throughout (conditions): viability after 72 hours
In general terms: Cellular ATP, detected with luciferase, serves as a proxy for viable cell number.

The target of assay [1] is T1, BAF3 FL KIT EX11DEL/T670I (Homo sapiens, UniProt P10721, T670I, cells depend on it, form not given).
T1 construct: BAF3 FL KIT EX11DEL/T670I
Here is the method: (§1) Generation of DBa/F3 KIT Mutant Engineered Cell Lines
(§2) KIT cDNAs were synthesized by GenScript and cloned into the pLVX-IRES-Puro vector (Clontech). Viral particles were produced by transfecting pLVX-IRES-puro vectors containing KIT mutant genes into HEK293 cells (Invitrogen) using the Trans-Lentiviral ORF Packaging Kit (Thermo Scientific). 48 hours post-transfection, virus-containing supernatants were harvested and incubated for another 48-72 hours with parental Ba/F3 cells (DSMZ) in the presence of 10 ng/mL IL-3 (R&D Systems). Transduced Ba/F3 cells were then selected by IL-3 withdrawal and puromycin (0.5-1 μg/mL, Invitrogen).
(§3) Cell lines (e.g., EX11DEL, EX11DEL/D816H, EX11DEL/T670I, and EX11DEL/V654A) were plated into 384 well plates using RPMI 1640 supplemented with 10% FBS at densities that produced linear growth and incubated at 37° C. in 5% (v/v) CO2. Cells were treated with eight concentrations of compound over a 4-fold dilution (10 μM to 0.61 nM) and viability was assessed using Cell Titer-Glo assay (Promega) after 72 hours. Data were plotted as percent viability relative to vehicle-treated cells. Dose-responses curves were generated and used to calculate IC50 values.

The target of assay [2] is T2, BAF3 FL KIT EX11DEL/V654A (Homo sapiens, UniProt P10721, V654A, cells depend on it, form not given).
T2 construct: BAF3 FL KIT EX11DEL/V654A
T2 sequence (P10721 with tags, fused parts or gaps DEL557-558/V654A, form open): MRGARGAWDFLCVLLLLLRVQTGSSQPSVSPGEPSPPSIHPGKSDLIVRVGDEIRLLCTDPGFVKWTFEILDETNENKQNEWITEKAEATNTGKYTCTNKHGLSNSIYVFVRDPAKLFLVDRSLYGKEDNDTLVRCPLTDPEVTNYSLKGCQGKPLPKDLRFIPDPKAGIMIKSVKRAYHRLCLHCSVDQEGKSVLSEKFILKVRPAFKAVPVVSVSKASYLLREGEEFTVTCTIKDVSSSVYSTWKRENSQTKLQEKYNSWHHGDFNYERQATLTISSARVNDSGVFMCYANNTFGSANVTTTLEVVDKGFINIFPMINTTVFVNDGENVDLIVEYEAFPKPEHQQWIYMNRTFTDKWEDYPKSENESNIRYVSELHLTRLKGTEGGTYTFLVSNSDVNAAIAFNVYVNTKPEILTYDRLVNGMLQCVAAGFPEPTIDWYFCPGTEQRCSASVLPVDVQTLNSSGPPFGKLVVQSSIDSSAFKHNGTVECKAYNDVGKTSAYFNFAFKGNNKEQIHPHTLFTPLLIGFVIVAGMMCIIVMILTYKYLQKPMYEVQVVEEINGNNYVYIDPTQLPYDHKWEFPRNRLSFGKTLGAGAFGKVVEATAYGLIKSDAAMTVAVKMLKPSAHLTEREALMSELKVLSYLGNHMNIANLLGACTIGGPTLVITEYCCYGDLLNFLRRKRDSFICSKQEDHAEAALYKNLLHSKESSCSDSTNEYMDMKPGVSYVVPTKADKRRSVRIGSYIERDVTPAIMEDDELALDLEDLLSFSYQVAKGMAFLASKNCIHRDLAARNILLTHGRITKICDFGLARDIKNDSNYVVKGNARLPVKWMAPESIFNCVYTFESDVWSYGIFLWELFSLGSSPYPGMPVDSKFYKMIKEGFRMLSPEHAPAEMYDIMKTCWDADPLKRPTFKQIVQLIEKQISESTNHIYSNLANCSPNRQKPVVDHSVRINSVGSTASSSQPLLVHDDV
The method, then:
as §1, §2, §3

Assay [3] addresses T3, BAF3 FL KIT EX11DEL (Homo sapiens, UniProt P10721, cells depend on it, form not given).
T3 construct: BAF3 FL KIT EX11DEL
The method, then:
as §1, §2, §3

Assay [4] deals with T4, BAF3 FL KIT EX11DEL/D816H (Homo sapiens, UniProt P10721, D816H, cells depend on it, form not given).
T4 construct: BAF3 FL KIT EX11DEL/D816H
T4 sequence (P10721 with tags, fused parts or gaps DEL557-558/D816H, form open): as the sequence (P10721 with tags, fused parts or gaps DEL557-558/V654A, form open) above, with A652V, D814H counted along it
The method, then:
as §1, §2, §3

A value given as a limit tells only on which side of the number the result lay.

T1 sequence (P10721 with tags, fused parts or gaps DEL557-558/T670I, form open): as the sequence (P10721 with tags, fused parts or gaps DEL557-558/V654A, form open) above, with A652V, T668I counted along it
T3 sequence (P10721 with tags, fused parts or gaps DEL557-558): as the sequence (P10721 with tags, fused parts or gaps DEL557-558/V654A, form open) above, with A652V counted along it

On to `Cc1ccc(C(=O)Nc2cc(C(F)(F)F)ccn2)cc1C#Cc1cnc(NC(=O)N2CCC(N(C)C)C2)s1` (centres unmarked) [I-40, 3-(dimethylamino)-N-(5-((2-methyl-5-((4-(trifluoromethyl)pyridin-2-yl)carbamoyl)phenyl)ethynyl)thiazol-2-yl)pyrrolidine-1-carboxamide], for which the concentration for 50% growth inhibition (GI50) – broadly, the concentration that inhibits growth by half – in assay [1] was under 0.01 µM; in assay [2] it was 0.01 to 0.05 µM; in assay [3] it was under 0.01 µM; in assay [4], 0.01 to 0.05 µM.

For the molecule `Cc1ccc(C(=O)Nc2cc(C(F)(F)F)ccn2)cc1C#Cc1cnc(NC(=O)N2CCC(N3CCN(C)CC3)CC2)s1` [I-41, N-(5-((2-methyl-5-((4-(trifluoromethyl)pyridin-2-yl)carbamoyl)phenyl)ethynyl)thiazol-2-yl)-4-(4-methylpiperazin-1-yl)piperidine-1-carboxamide], the 50% growth inhibitory concentration (GI50) in assay [1] was 0.01 to 0.05 µM; in assay [2], 0.01 to 0.05 µM; in assay [3], under 0.01 µM; in assay [4], 0.01 to 0.05 µM.

In the case of `Cc1ccc(C(=O)Nc2cc(C(F)(F)F)ccn2)cc1C#Cc1cnc(NC(=O)NCCCN)s1` [I-36, 3-((2-(3-(3-aminopropyl)ureido)thiazol-5-yl)ethynyl)-4-methyl-N-(4-(trifluoromethyl)pyridin-2-yl)benzamide], the GI50 was 0.01 to 0.05 µM in assay [1], 0.01 to 0.05 µM in assay [2], under 0.01 µM in assay [3] and 0.01 to 0.05 µM in assay [4].

Turning to `CNC(=O)Nc1ncc(C#Cc2cc(C(=O)Nc3cc(C(F)(F)F)ccn3)ccc2F)s1` [I-45, 4-fluoro-3-((2-(3-methylureido)thiazol-5-yl)ethynyl)-N-(4-(trifluoromethyl)pyridin-2-yl)benzamide], the GI50 was under 0.01 µM in assay [1], 0.01 to 0.05 µM in assay [2], under 0.01 µM in assay [3] and 0.01 to 0.05 µM in assay [4].

On to `CNC(=O)Nc1ncc(C#Cc2cc(NC(=O)c3cc(C(F)(F)F)ccn3)ccc2C)s1` [I-57, N-(4-methyl-3-((2-(3-methylureido)thiazol-5-yl)ethynyl)phenyl)-4-(trifluoromethyl)picolinamide], for which the 50% growth inhibitory concentration (GI50) in assay [1] is 0.01 to 0.05 µM; in assay [2], under 0.01 µM; in assay [3], under 0.01 µM; in assay [4], under 0.01 µM.

For the molecule `Cc1ccc(C(=O)Nc2cc(C(F)(F)F)ccn2)cc1C#Cc1cnc(NC(=O)NCC2CCN(C)CC2)s1` [I-13, 4-methyl-3-((2-(3-((1-methylpiperidin-4-yl)methyl)ureido)thiazol-5-yl)ethynyl)-N-(4-(trifluoromethyl)pyridin-2-yl)benzamide], the GI50 in assay [1] was 0.01 to 0.05 µM; in assay [2] it was 0.01 to 0.05 µM; in assay [3] it was under 0.01 µM; in assay [4] it was 0.01 to 0.05 µM.

As for `CCN(CC)CCN(C)C(=O)Nc1ncc(C#Cc2cc(NC(=O)c3cc(C(F)(F)F)ccn3)ccc2C)s1` [I-59, N-(3-((2-(3-(2-(diethylamino)ethyl)-3-methylureido)thiazol-5-yl)ethynyl)-4-methylphenyl)-4-(trifluoromethyl)picolinamide], the concentration for 50% growth inhibition (GI50) is 0.1 to 10 µM in assay [1], 0.1 to 10 µM in assay [2], 0.01 to 0.05 µM in assay [3] and 0.05 to 0.1 µM in assay [4].

Regarding `Cc1ccc(C(=O)Nc2cc(C(F)(F)F)ccn2)cc1C#Cc1cnc(NC(=O)N2CCOCC2)s1` [I-35, N-(5-((2-methyl-5-((4-(trifluoromethyl)pyridin-2-yl)carbamoyl)phenyl)ethynyl)thiazol-2-yl)morpholine-4-carboxamide], the 50% growth inhibitory concentration (GI50) in assay [1] was under 0.01 µM; in assay [2], 0.01 to 0.05 µM; in assay [3] it was under 0.01 µM; in assay [4], under 0.01 µM.

For `Cc1ccc(C(=O)Nc2cc(C(F)(F)F)ccn2)cc1C#Cc1cnc(NC(=O)C2CC2)s1` [I-49, 3-((2-(cyclopropanecarboxamido)thiazol-5-yl)ethynyl)-4-methyl-N-(4-(trifluoromethyl)pyridin-2-yl)benzamide], the GI50 was 0.01 to 0.05 µM in assay [1], 0.01 to 0.05 µM in assay [2], under 0.01 µM in assay [3] and 0.01 to 0.05 µM in assay [4].

As for `Cc1ccc(C(=O)Nc2cc(C(F)(F)F)ccn2)cc1C#Cc1cnc(NC(=O)NCCN)s1` [I-38, 3-((2-(3-(2-aminoethyl)ureido)thiazol-5-yl)ethynyl)-4-methyl-N-(4-(trifluoromethyl)pyridin-2-yl)benzamide], the concentration for 50% growth inhibition (GI50) in assay [1] was 0.05 to 0.1 µM; in assay [2] it was 0.05 to 0.1 µM; in assay [3] it was under 0.01 µM; in assay [4] it was 0.05 to 0.1 µM.

For `Cc1ccc(C(=O)Nc2cc(C(F)(F)F)ccn2)cc1C#Cc1cnc(NC(=O)N(C)C2CN(C)C2)s1` [I-39, 4-methyl-3-((2-(3-methyl-3-(1-methylazetidin-3-yl)ureido)thiazol-5-yl)ethynyl)-N-(4-(trifluoromethyl)pyridin-2-yl)benzamide], the 50% growth inhibitory concentration (GI50) is 0.1 to 10 µM in assay [1], 0.1 to 10 µM in assay [2], 0.01 to 0.05 µM in assay [3] and 0.1 to 10 µM in assay [4].

Consider `COCCN(C)C(=O)Nc1ncc(C#Cc2cc(C(=O)Nc3cccc(C(F)(F)F)c3OC)ccc2C)s1` [I-47, N-(2-methoxy-3-(trifluoromethyl)phenyl)-3-((2-(3-(2-methoxyethyl)-3-methylureido)thiazol-5-yl)ethynyl)-4-methylbenzamide], for which the concentration for 50% growth inhibition (GI50) in assay [1] was 0.1 to 10 µM; in assay [2], 0.01 to 0.05 µM; in assay [3], under 0.01 µM; in assay [4] it was 0.01 to 0.05 µM.

Take `Cc1ccc(C(=O)Nc2cc(C(F)(F)F)ccn2)cc1C#Cc1cnc(NC(=O)C(C)(C)C)s1` [I-52, 4-methyl-3-((2-pivalamidothiazol-5-yl)ethynyl)-N-(4-(trifluoromethyl)pyridin-2-yl)benzamide]: the 50% growth inhibitory concentration (GI50) in assay [1] lay within 0.1 to 10 µM; in assay [2], 0.1 to 10 µM; in assay [3] it was 0.01 to 0.05 µM; in assay [4] it was 0.1 to 10 µM.

In the case of `Cc1ccc(C(=O)Nc2cc(C(F)(F)F)ccn2)cc1C#Cc1cnc(NC(=O)N(C)C2CCC(O)CC2)s1` (centres unmarked) [I-22, 3-((2-(3-(4-hydroxycyclohexyl)-3-methylureido)thiazol-5-yl)ethynyl)-4-methyl-N-(4-(trifluoromethyl)pyridin-2-yl)benzamide], the GI50 in assay [1], in assay [2], in assay [3] and in assay [4] was under 0.01 µM throughout.

Turning to `Cc1ccc(C(=O)Nc2cc(C(F)(F)F)ccn2)cc1C#Cc1cnc(NC(=O)N(C)C)s1` [I-1, 3-((2-(3,3-dimethylureido)thiazol-5-yl)ethynyl)-4-methyl-N-(4-(trifluoromethyl)pyridin-2-yl)benzamide], the GI50 in assay [1], in assay [2], in assay [3] and in assay [4] was under 0.01 µM in each case.

With `Cc1ccc(C(=O)Nc2cc(C(F)(F)F)ccn2)cc1C#Cc1cnc(NC(N)=O)s1` [I-2, 4-methyl-N-(4-(trifluoromethyl)pyridin-2-yl)-3-((2-ureidothiazol-5-yl)ethynyl)benzamide], the 50% growth inhibitory concentration (GI50) in assay [1] is under 0.01 µM; in assay [2], under 0.01 µM; in assay [3] it was under 0.01 µM; in assay [4], 0.01 to 0.05 µM.

For the molecule `CC(=O)Nc1ncc(C#Cc2cc(C(=O)Nc3cc(C(F)(F)F)ccn3)ccc2C)s1` [I-51, 3-((2-acetamidothiazol-5-yl)ethynyl)-4-methyl-N-(4-(trifluoromethyl)pyridin-2-yl)benzamide], the GI50 in assay [1] was 0.01 to 0.05 µM; in assay [2], 0.01 to 0.05 µM; in assay [3], under 0.01 µM; in assay [4], 0.01 to 0.05 µM.

For the molecule `Cc1ccc(C(=O)Nc2cc(C(F)(F)F)ccn2)cc1C#Cc1cnc(NC(=O)N(C)CCN2CCCC2)s1` [I-19, 4-methyl-3-((2-(3-methyl-3-(2-(pyrrolidin-1-yl)ethyl)ureido)thiazol-5-yl)ethynyl)-N-(4-(trifluoromethyl)pyridin-2-yl)benzamide], the concentration for 50% growth inhibition (GI50) in assay [1] was 0.01 to 0.05 µM; in assay [2], 0.01 to 0.05 µM; in assay [3], under 0.01 µM; in assay [4], 0.01 to 0.05 µM.

Turning to `Cc1ccc(C(=O)Nc2cc(C(F)(F)F)ccn2)cc1C#Cc1cnc(NC(=O)NCCN2CCC(O)C2)s1` (centres unmarked) [I-18, 3-((2-(3-(2-(3-hydroxypyrrolidin-1-yl)ethyl)ureido)thiazol-5-yl)ethynyl)-4-methyl-N-(4-(trifluoromethyl)pyridin-2-yl)benzamide], the GI50 in assay [1] was 0.01 to 0.05 µM; in assay [2], 0.01 to 0.05 µM; in assay [3] it was under 0.01 µM; in assay [4], 0.01 to 0.05 µM.

`Cc1ccc(C(=O)Nc2cc(C(F)(F)F)ccn2)cc1C#Cc1cnc(NC(=O)N(C)C2CCCN(C)C2)s1` (centres unmarked) [I-32, 4-methyl-3-((2-(3-methyl-3-(1-methylpiperidin-3-yl)ureido)thiazol-5-yl)ethynyl)-N-(4-(trifluoromethyl)pyridin-2-yl)benzamide]: the 50% growth inhibitory concentration (GI50) in assay [1] was 0.01 to 0.05 µM; in assay [2], 0.01 to 0.05 µM; in assay [3] it was under 0.01 µM; in assay [4], 0.01 to 0.05 µM.

The values are drawn from patent publication US11753404B2, “Aminothiazole compounds as c-Kit inhibitors” (Ariad Pharmaceuticals, Inc., priority 2016, dated 2023).
